Reference: the supplement of paper PMC8882468
± gives the standard deviation of the averaged measurements.

Tests used:
Experiment in all cases: CTG-3D luminescence at 96 h relative to day-0 seeding control (ratio to day 0); higher = more growth / less cytotoxicity; PDxO 3D drug screen (set 2), 96 h, CTG-3D normalised to day-0 seeding control.
[1] = system: HCI-008 (organoid from a HER2-enriched breast cancer xenograft)
[2] = system: HCI-011.E2 (organoid from an ER-positive breast cancer xenograft)
[3] = system: HCI-027 (organoid from a triple-negative breast cancer xenograft)
[4] = system: HCI-025 (organoid from a breast cancer xenograft)

Nc1cc(C(F)(F)F)c(-c2cc(N3CCOCC3)nc(N3CCOCC3)n2)cn1 [buparlisib]
CTG-3D luminescence at 96 h
Details	12.5 pM	0.00025 µM	0.005 µM	0.1 µM	1 µM	10 µM	100 µM	625 fM
[1], days in culture: 325	0.757	2.89	2.4	2.51	1.17	0.647	0.313	1.94
[1], days in culture: 340	0.632	2.38	1.94	1.55	1.56	–	0.305	1.04
[1], days in culture: 354	0.796	1.19	2.59	1.46	0.578	0.294	0.327	1.16
[1], days in culture: 382	1.52	1.82	1.45	1.71	0.652	0.363	0.104	1.9
[2], days in culture: 74	2.23	1.9	1.83	2.23	0.711	0.135	0.0559	2.32
[3], days in culture: 145	1.54	1.52	1.25	1.43	0.692	0.328	0.299	2.3
[3], days in culture: 158	2.38	2.8	2.6	2.57	0.949	0.818	0.172	2.61
[3], days in culture: 164	1.85	1.65	1.59	2.16	0.625	0.478	0.612	1.57
[3], days in culture: 176	4.08	3.24	0.833	1.54	0.26	0.384	0.144	2.31
[3], days in culture: 186	1.86	1.61	2.44	1.65	0.528	0.223	0.169	2.21
[4], days in culture: 175	1.38	1.85	1.95	1.88	1.75	0.433	0.118	1.71
[4], days in culture: 189	2.47	2.03	1.96	1.69	1.36	0.246	0.0627	2.83
[4], days in culture: 212	3.39	3.81	2.06	1.13	1.13	0.331	0.0312	1.54
[4], days in culture: 224	2.03	2.32	1.5	1.44	1.75	0.339	0.136	1.69

[2]
Details	CTG-3D luminescence at 96 h
12.5 pM	1.59 ± 0.17
0.00025 µM	1.75 ± 0.2
0.005 µM	1.23 ± 0.11
0.1 µM	1.38 ± 0.12
1 µM	0.772 ± 0.013
10 µM	0.191 ± 0.037
100 µM	0.0881 ± 0.021
625 fM	2.09 ± 0.41

CC(=O)O[C@@]12CO[C@@H]1C[C@H](O)[C@@]1(C)C(=O)[C@H](O)C3=C(C)[C@@H](OC(=O)[C@H](O)[C@@H](NC(=O)OC(C)(C)C)c4ccccc4)C[C@@](O)([C@@H](OC(=O)c4ccccc4)[C@H]21)C3(C)C [docetaxel]
CTG-3D luminescence at 96 h
Details	12.5 pM	0.00025 µM	0.005 µM	0.1 µM	1 µM	10 µM	100 µM	625 fM
[1], days in culture: 325	1.01	1.46	1.35	1.91	2.06	1.53	0.0817	1.14
[1], days in culture: 340	0.747	1.06	1.26	0.976	0.918	–	0.0677	0.77
[1], days in culture: 354	1.16	1.01	1.5	1.16	0.508	1.23	0.211	0.885
[1], days in culture: 382	1.56	1.35	0.719	0.823	0.446	0.547	0.0143	1.74
[2], days in culture: 74	2.53	2.12	1.78	1.48	1.09	0.702	0.133	2.19
[3], days in culture: 145	1.01	0.93	0.832	0.862	0.922	0.849	0.15	1.06
[3], days in culture: 158	2.07	2.12	1.05	0.461	1.19	2.61	0.153	3.28
[3], days in culture: 164	2.42	1.32	0.405	0.525	0.555	0.505	0.117	1.04
[3], days in culture: 176	3.89	2.21	0.338	0.629	0.457	0.475	0.0832	2.73
[3], days in culture: 186	1.45	1.25	0.855	0.693	0.469	0.451	0.0466	2.08
[4], days in culture: 175	0.586	0.61	0.547	0.494	0.674	0.771	0.387	0.704
[4], days in culture: 189	0.971	0.89	0.694	1.01	0.76	0.759	0.286	1.74
[4], days in culture: 212	2.49	1.38	0.974	0.822	0.332	0.385	0.187	0.772
[4], days in culture: 224	2.29	2.24	0.853	0.501	0.639	0.685	0.065	1.64

[2]
Details	CTG-3D luminescence at 96 h
12.5 pM	1.19 ± 0.019
0.00025 µM	1.26 ± 0.21
0.005 µM	1.02 ± 0.34
0.1 µM	1.32 ± 0.19
1 µM	1.05 ± 0.43
10 µM	0.933 ± 0.14
100 µM	0.118 ± 0.012
625 fM	1.35 ± 0.16

CC(C)n1nc(-c2ccc3oc(N)nc3c2)c2c(N)ncnc21 [sapanisertib]
CTG-3D luminescence at 96 h
Details	12.5 pM	0.00025 µM	0.005 µM	0.1 µM	1 µM	10 µM	100 µM	625 fM
[1], days in culture: 325	1.51	1.96	1.64	0.99	0.826	0.32	0.112	1.88
[1], days in culture: 340	0.668	2.32	1.51	0.592	0.593	–	0.0751	0.965
[1], days in culture: 354	1.18	1.2	2.84	0.615	0.502	0.229	0.122	1.31
[1], days in culture: 382	1.81	1.93	1.22	0.751	0.282	0.304	0.0604	1.7
[2], days in culture: 74	2.73	2.43	1.98	0.488	0.142	0.167	0.138	2.6
[3], days in culture: 145	1.73	1.87	1.67	0.675	0.62	0.3	0.158	1.76
[3], days in culture: 158	1.38	2.26	2.09	1.46	0.941	0.992	0.124	3.36
[3], days in culture: 164	1.86	1.51	1.15	1.08	1.1	0.369	0.41	2.35
[3], days in culture: 176	3.48	2.27	1.45	1.22	0.927	0.364	0.195	2.69
[3], days in culture: 186	0.934	1.54	1.53	1.25	0.548	0.717	0.142	2.62
[4], days in culture: 175	1.69	1.73	1.62	0.506	0.401	0.466	0.283	2.01
[4], days in culture: 189	2.16	2.67	1.63	0.619	0.34	0.244	0.0962	3.34
[4], days in culture: 212	1.26	1.57	2.69	0.0755	0.227	0.183	0.277	1.33
[4], days in culture: 224	2.13	1.98	1.91	0.411	0.423	0.26	0.17	1.86

[2]
Details	CTG-3D luminescence at 96 h
12.5 pM	1.55 ± 0.24
0.00025 µM	1.65 ± 0.35
0.005 µM	0.974 ± 0.011
0.1 µM	0.413 ± 0.1
1 µM	0.187 ± 0.05
10 µM	0.228 ± 0.036
100 µM	0.277 ± 0.05
625 fM	1.96 ± 0.3
